Assay results: PubChem BioAssay (NCI)
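Five concentrations, 48 hours, 96-well plates. GI50 = concentration required for 50% inhibition of growth. Definition used: TGI = concentration required for complete inhibition of growth.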

Legend:
Experiment in all cases: inhibition of tumour cell growth, NCI panel, 48 h
BT-549 breast = system: BT-549 breast
CAKI-1 renal = system: CAKI-1 renal
HCT-15 colon = system: HCT-15 colon
IGROV1 ovarian = system: IGROV1 ovarian
M14 melanoma = system: M14 melanoma
MDA-N = system: MDA-N
OVCAR-3 ovarian = system: OVCAR-3 ovarian
OVCAR-8 ovarian = system: OVCAR-8 ovarian
TK-10 renal = system: TK-10 renal

SMILES	TGI (BT-549 breast) [µM]	TGI (CAKI-1 renal) [µM]	TGI (HCT-15 colon) [µM]	TGI (IGROV1 ovarian) [µM]	TGI (M14 melanoma) [µM]	TGI (MDA-N) [µM]	TGI (OVCAR-3 ovarian) [µM]	TGI (OVCAR-8 ovarian) [µM]	TGI (TK-10 renal) [µM]	GI50 (BT-549 breast) [µM]	GI50 (HCT-15 colon) [µM]	GI50 (IGROV1 ovarian) [µM]	GI50 (M14 melanoma) [µM]	GI50 (OVCAR-3 ovarian) [µM]	GI50 (OVCAR-8 ovarian) [µM]	GI50 (TK-10 renal) [µM]
COc1ccc2cc(NC(=O)N/N=C\c3ccc(Cl)cc3)ccc2c1	> 100	> 100	> 100	> 100	> 100	> 100	> 100	> 100	> 100							
O=C1C=C(c2ccccc2)O/C1=C/C(=O)c1ccc(Cl)cc1	30.1	27.6	39.5	35.9	40.3	30.2	31.9	74.8	35.3							
O=C(Cc1ccccc1)NN1C(=O)/C(=C\c2ccc([N+](=O)[O-])cc2)SC1=Nc1ccccc1			> 100	> 100	> 100		> 100	> 100	> 100							
Cc1cc2[nH]c3c(C#N)c4c(c(=O)n3c2cc1C)CCCC4	> 100	> 100	> 100	> 100	27.6	> 100	> 100	> 100	> 100							
Brc1cc2nn(-c3ccccc3)nc2c2nonc12	> 100	> 100	> 100	> 100	> 100	> 100	> 100	> 100	> 100							
CC1(C(=O)O)CCCC1C(=O)O (centres undefined)	> 100	> 100	> 100	> 100	> 100	> 100	> 100	> 100	> 100							
O=C1C=CC(=O)c2c(O)c(NCCc3ccc(O)cc3)c(Cl)c(O)c21	> 10	> 10	> 10	> 10	> 10	> 10	> 10	> 10	> 10							
O=[N+]([O-])c1ccc(NC(=S)N=Nc2c(O)[nH]c3ccc(Br)cc23)cc1	11.1	20.6	12.9	18.3		23.5	21.8	20	28.5							
Cc1c2ncccc2cc2oc3ccccc3c(=O)c12	> 100	> 100	> 100	> 100		> 100	> 100	> 100	> 100							
CC1(C)C=C(S(=O)(=O)c2ccccc2)Oc2ccccc2O1	> 100	> 100	> 100	> 100	> 100	> 100	> 100	> 100	36							
Cn1c([O-])nc(-n2cc[n+](C)c2)cc1=O	> 100		> 100	> 100	> 100	> 100	> 100		> 100							
c1ccc(/C(=N/Nc2ccccn2)c2ncccn2)cc1	> 100	5.69	> 100	> 21	6.93	> 100	> 44.3	3.43								
CC(=O)OCC(OC(C)=O)C1C[C@H]2O[C@@H]3[C@H](C[C@H]2O1)O[C@@]1(C[C@@H]3C)C[C@H](C)[C@@H]2O[C@]3(C[C@@H]2O1)C[C@H]1O[C@H]2[C@H](C)[C@H]4OC(=O)CC5CC[C@H]6OC7[C@H]8O[C@]9(CC[C@H]%10CC(O)(CO)[C@H](CC[C@H]%11C[C@@H](C)C(O)(CO)C(C[C@@H]4O[C@H]2C[C@H]1O3)O%11)O%10)CC8O[C@@H]7[C@@H](O9)[C@H]6O5 (some centres undefined)	0.00923	> 1		> 1	> 1		> 1	> 0.271	> 1							
O=C(N/N=C/c1ccco1)c1cc(I)cc(I)c1O	> 50	> 50	> 50	> 50	> 50	> 50		> 50								
N#Cc1c(-c2ccc(F)cc2)nc(N/N=C/c2c[nH]c3ccccc23)nc1N1CCOCC1	30.9		4.56	79.7	4.87		35	93.8	61	5.43	0.784	12.8	2.1	11.5	7.63	15.5
CCOC(=O)C(CC#Cc1ccc(C#CCC(NC(C)=O)C(=O)OCC)cc1)NC(C)=O (centres undefined)		> 100	> 100	> 100	> 100	> 100	> 100	> 100	> 100							
Cc1cn(C(C)OCCN2C(=O)c3ccccc3C2=O)c(=O)[nH]c1=O (centres undefined)	> 100	> 100	> 100	> 100	> 100	> 100	> 100	> 100								
COC(=O)c1ccc(C=Nc2ccc(S(N)(=O)=O)cc2)cc1	> 100	> 100	> 100		> 100	> 100	> 100	> 100	> 100							
O=c1c(-c2ccc(Cl)cc2)nnc2n(Cc3ccccc3)c3ccccc3n12	57.2	59.8	> 100	> 100	> 100	> 100		> 100	61.8							
CN(C)S(=O)(=O)Nc1nnc(S(N)(=O)=O)s1	> 100	> 100	> 100	> 100	> 100		> 100		> 100							
OC1(c2ccc(Cl)cc2)c2ccc3ccccc3c2C2=N[C@H]3CCCC[C@@H]3N21 (some centres undefined)		67.1	28.3	> 100	23	> 100	21.9	3.45	4.87							
CCC(C)C(=O)OC1CC2(C)C(c3ccoc3)OC(=O)CC23OC2(C)OC34C(OC(=O)C(C)C)C3(O)C(OC(=O)C5(C)OC5C)C5(C)CC3(O)C(C)(C5CC(=O)OC)C14O2 (centres undefined)	> 100	> 100	> 100	> 100	> 100	> 100		> 100	> 100							
NC1CNC(=O)c2c(Cl)sc(Cl)c21 (centres undefined)		> 100	> 100	> 100	> 100	> 100	> 100	> 100	> 100							
O=c1[nH]nc(-c2ccccc2)c2[nH]c(-c3ccccc3)cc12	> 100	> 100	> 100	> 100	> 100	> 100	> 100	> 100								
